Laboratory results from US20210387954A1, “OXADIAZOLES AS FUNGICIDES” (PI INDUSTRIES LIMITED, priority 2018, published 2021).

Key:
Phakopsora pachyrhizi = Phakopsora pachyrhizi test in soybean (greenhouse, preventive); type: in vivo; conditions: 24 h, soybean plants sprayed one day before inoculation, read-out: control compared to the untreated check (efficacy from disease severity rating)
Description: Compounds were dissolved in 2% DMSO/Acetone and then diluted with water containing emulsifier to the desired test concentration. To test the preventive activity of compounds, healthy young soybean plants, raised in the greenhouse, were sprayed with the active compound solution at the stated application rates inside spray cabinets using hallowcone nozzles. One day after treatment, the plants were inoculated with a suspension containing 2.1×10^6 Phakopsora pachyrhizi spores. The inoculated plants were then kept in the greenhouse chamber at 25° C. temperature and 90% relative humidity for disease expression. A visual assessment of the compound's performance was carried out by rating the disease severity (0-100% scale) on treated plants on 3, 7, 10 and 15 days after application. Efficacy (% control) of the compounds was calculated by comparing the disease rating in the treatment with the one of the untreated control. The treated plants were also assessed for plant compatibility by recording symptoms like necrosis, chlorosis and stunting.

Alternaria solani = Alternaria solani (early blight of tomato/potato) in vitro radial growth test on Potato Dextrose Agar; type: cell-based; conditions: 168 h, radial growth after seven days at 25° C., 60% relative humidity, read-out: control compared to the untreated check
Colletotrichum capsici = Colletotrichum capsici (anthracnose) in vitro radial growth test on Potato Dextrose Agar; type: cell-based; conditions: 300 ppm; radial growth after seven days at 25° C., 60% relative humidity
Corynespora cassicola = Corynespora cassicola (leaf spot of tomato) in vitro radial growth test on Potato Dextrose Agar; type: cell-based; conditions: 300 ppm; radial growth after seven days at 25° C., 70% relative humidity

SMILES | pest or weed control at 500 ppm (Phakopsora pachyrhizi) [%] | also measured
O=C(Nc1ccc(Cc2noc(C(F)(F)F)n2)cc1)c1ccccc1 [Compound 2, N-(4-((5-(trifluoromethyl)-1,2,4-oxadiazol-3-yl)methyl)phenyl)benzamide] | > 70 | –
O=C(Nc1ccc(Cc2noc(C(F)(F)F)n2)cc1)c1ccccn1 [Compound 3, N-(4-((5-(trifluoromethyl)-1,2,4-oxadiazol-3-yl)methyl)phenyl)picolinamide] | > 70 | –
O=C(Nc1ccc(Cc2noc(C(F)(F)F)n2)cc1)c1cccnc1 [Compound 4, N-(4-((5-(trifluoromethyl)-1,2,4-oxadiazol-3-yl)methyl)phenyl)nicotinamide] | > 70 | –
O=C(Nc1ccc(Cc2noc(C(F)(F)F)n2)cc1)c1ccncc1 [Compound 5, N-(4-((5-(trifluoromethyl)-1,2,4-oxadiazol-3-yl)methyl)phenyl)isonicotinamide] | > 70 | –
O=C(Cc1ccccc1)Nc1ccc(Cc2noc(C(F)(F)F)n2)cc1 [Compound 6, 2-phenyl-N-(4-((5-(trifluoromethyl)-1,2,4-oxadiazol-3-yl)methyl)phenyl)acetamide] | > 70 | inhibition of growth at 300 ppm (Alternaria solani): > 70%; control compared to the untreated check (Colletotrichum capsici): > 70%
O=C(Nc1ccc(Cc2noc(C(F)(F)F)n2)cc1)c1ccc(C(F)(F)F)cc1 [Compound 8, 4-(trifluoromethyl)-N-(4-((5-(trifluoromethyl)-1,2,4-oxadiazol-3-yl)methyl)phenyl)benzamide] | > 70 | –
O=C(Nc1ccc(Cc2noc(C(F)(F)F)n2)cc1)c1ccc(F)cc1 [Compound 9, 4-fluoro-N-(4-((5-(trifluoromethyl)-1,2,4-oxadiazol-3-yl)methyl)phenyl)benzamide] | > 70 | –
O=C(Nc1ccc(Cc2noc(C(F)(F)F)n2)cc1)c1ccc(Cl)cc1 [Compound 10, 4-chloro-N-(4-((5-(trifluoromethyl)-1,2,4-oxadiazol-3-yl)methyl)phenyl)benzamide] | > 70 | –
O=C(NCc1ccc(F)cc1)c1ccc(Cc2noc(C(F)(F)F)n2)cc1 [Compound 12, N-(4-fluorobenzyl)-4-((5-(trifluoromethyl)-1,2,4-oxadiazol-3-yl)methyl)benzamide] | > 70 | inhibition of growth at 300 ppm (Alternaria solani): > 70%
O=C(c1ccc(Cc2noc(C(F)(F)F)n2)cc1)N1CCOCC1 [Compound 13, morpholino(4-((5-(trifluoromethyl)-1,2,4-oxadiazol-3-yl)methyl)phenyl)methanone] | > 70 | –
Cc1ccc(C(C)NC(=O)c2ccc(Cc3noc(C(F)(F)F)n3)cc2)cc1 (stereo not drawn) [Compound 15, N-(1-(p-tolyl)ethyl)-4-((5-(trifluoromethyl)-1,2,4-oxadiazol-3-yl)methyl)benzamide] | – | inhibition of growth at 300 ppm (Alternaria solani): > 70%
O=C(NCc1cccnc1)c1ccc(Cc2noc(C(F)(F)F)n2)cc1 [Compound 16, N-(pyridin-3-ylmethyl)-4-((5-(trifluoromethyl)-1,2,4-oxadiazol-3-yl)methyl)benzamide] | – | inhibition of growth at 300 ppm (Alternaria solani): > 70%
O=C(Nc1cncc(Cl)c1)c1ccc(Cc2noc(C(F)(F)F)n2)cc1 [Compound 17, N-(5-chloropyridin-3-yl)-4-((5-(trifluoromethyl)-1,2,4-oxadiazol-3-yl)methyl)benzamide] | – | inhibition of growth at 300 ppm (Alternaria solani): > 70%
COc1ccc(Cl)c(NC(=O)c2ccc(Cc3noc(C(F)(F)F)n3)cc2)c1 [Compound 18, N-(2-chloro-5-methoxyphenyl)-4-((5-(trifluoromethyl)-1,2,4-oxadiazol-3-yl)methyl)benzamide] | > 70 | –
COc1ccccc1NC(=O)c1ccc(Cc2noc(C(F)(F)F)n2)cc1 [Compound 19, N-(2-methoxyphenyl)-4-((5-(trifluoromethyl)-1,2,4-oxadiazol-3-yl)methyl)benzamide] | – | inhibition of growth at 300 ppm (Alternaria solani): > 70%
O=C(NCCN1CCOCC1)c1ccc(Cc2noc(C(F)(F)F)n2)cc1 [Compound 21, N-(2-morpholinoethyl)-4-((5-(trifluoromethyl)-1,2,4-oxadiazol-3-yl)methyl)benzamide] | – | inhibition of growth at 300 ppm (Alternaria solani): > 70%

SMILES | pest or weed control at 500 ppm (Phakopsora pachyrhizi) [%] | also measured
O=C(Nc1ccc(C(=O)c2noc(C(F)(F)F)n2)cc1)c1ccncc1 [Compound 27, N-(4-(5-(trifluoromethyl)-1,2,4-oxadiazole-3-carbonyl)phenyl)isonicotinamide] | > 70 | –
CC(C)(C)OC(=O)Nc1ccc(C(=O)c2noc(C(F)(F)F)n2)cc1 [Compound 29, tert-butyl (4-(5-(trifluoromethyl)-1,2,4-oxadiazole-3-carbonyl)phenyl)carbamate] | > 70 | –
CC(C)(C)OC(=O)Nc1ccc(C(F)(F)c2noc(C(F)(F)F)n2)cc1 [Compound 30, tert-butyl (4-(difluoro(5-(trifluoromethyl)-1,2,4-oxadiazol-3-yl)methyl)phenyl)carbamate] | > 70 | –
Cc1ccc(C(=O)Nc2ccc(C(F)(F)c3noc(C(F)(F)F)n3)cc2)cc1 [Compound 38, N-(4-(difluoro(5-(trifluoromethyl)-1,2,4-oxadiazol-3-yl)methyl)phenyl)-4-methylbenzamide] | > 70 | –
CNC(=O)c1ccc(Cc2noc(C(F)(F)F)n2)cc1 [Compound 40, N-methyl-4-((5-(trifluoromethyl)-1,2,4-oxadiazol-3-yl)methyl)benzamide] | > 70 | –
COCCNC(=O)c1ccc(Cc2noc(C(F)(F)F)n2)cc1 [Compound 42, N-(2-methoxyethyl)-4-((5-(trifluoromethyl)-1,2,4-oxadiazol-3-yl)methyl)benzamide] | > 70 | –
O=C(c1ccc(Cc2noc(C(F)(F)F)n2)cc1)N1CCCC1 [Compound 45, pyrrolidin-1-yl(4-((5-(trifluoromethyl)-1,2,4-oxadiazol-3-yl)methyl)phenyl)methanone] | > 70 | –
COCCN(C)C(=O)c1ccc(Cc2noc(C(F)(F)F)n2)cc1 [Compound 46, N-(2-methoxyethyl)-N-methyl-4-((5-(trifluoromethyl)-1,2,4-oxadiazol-3-yl)methyl)benzamide] | > 70 | –
O=C(NCC1CC1)c1ccc(Cc2noc(C(F)(F)F)n2)cc1 [Compound 47, N-(cyclopropylmethyl)-4-((5-(trifluoromethyl)-1,2,4-oxadiazol-3-yl)methyl)benzamide] | > 70 | –
CCN(C)C(=O)c1ccc(Cc2noc(C(F)(F)F)n2)cc1 [Compound 48, N-ethyl-N-methyl-4-((5-(trifluoromethyl)-1,2,4-oxadiazol-3-yl)methyl)benzamide] | > 70 | –
C=CCN(C)C(=O)c1ccc(Cc2noc(C(F)(F)F)n2)cc1 [Compound 49, N-allyl-N-methyl-4-((5-(trifluoromethyl)-1,2,4-oxadiazol-3-yl)methyl)benzamide] | > 70 | –
C#CCNC(=O)c1ccc(Cc2noc(C(F)(F)F)n2)cc1 [Compound 50, N-(prop-2-yn-1-yl)-4-((5-(trifluoromethyl)-1,2,4-oxadiazol-3-yl)methyl)benzamide] | > 70 | –
O=C(Nc1cccc(Cl)c1)c1ccc(Cc2noc(C(F)(F)F)n2)cc1 [Compound 55, N-(3-chlorophenyl)-4-((5-(trifluoromethyl)-1,2,4-oxadiazol-3-yl)methyl)benzamide] | – | inhibition of growth at 300 ppm (Alternaria solani): > 70%
Cc1cccc(NC(=S)c2ccc(Cc3noc(C(F)(F)F)n3)cc2)c1 [Compound 64, N-(m-tolyl)-4-((5-(trifluoromethyl)-1,2,4-oxadiazol-3-yl)methyl)benzothioamide] | – | inhibition of growth at 300 ppm (Alternaria solani): > 70%
Fc1ccc(NC(=S)c2ccc(Cc3noc(C(F)(F)F)n3)cc2)cc1 [Compound 67, N-(4-fluorophenyl)-4-((5-(trifluoromethyl)-1,2,4-oxadiazol-3-yl)methyl)benzothioamide] | > 70 | –
O=S(=O)(Nc1ccc(Cc2noc(C(F)(F)F)n2)cc1)c1ccccc1 [Compound 68, N-(4-((5-(trifluoromethyl)-1,2,4-oxadiazol-3-yl)methyl)phenyl)benzenesulfonamide] | > 70 | control compared to the untreated check (Corynespora cassicola): > 70%
